Reference: patent US20260209183A1, “HETEROCYCLIC COMPOUNDS AND USES THEREOF” (CERTA THERAPEUTICS PTY LTD, priority 2022, published 2026)

Target: T1, human GPR68 (Homo sapiens, UniProt Q15743)
T1 construct: host or cells: HEK293T
Assay: GPR68 cAMP GloSensor assay
Type: cell-based
Conditions: HEK293T cells transiently transfected with GPR68 and GloSensor-22F cAMP reporter; activation at pH 6.0; 10 μM top, 3-fold, 10 points, in duplicate
From the text: The assay was developed to provide a quick screen assay to determine the potency and EC50s/IC50s of compounds against the GPR68 receptor with transient transfection cell.
GPR68 senses extracellular pH.
To determine the compound activity in GPR68 inhibition, an GPR68 dependent cAMP assay was developed and validated. Principle of this method: Expression of GPR68 in HEK293T cells by transient transfection of a GPR68-expression vector and a cAMP-sensing reporter vector (GloSensor, Promega). The transfected cells as a pool will be re-plated uniformly in assay plates, to minimize the in-experiment variation. The GPR68 receptor signal will be measured via Gs to CAMP increase as indicated by the Luc activation under basal (pH8.4 or pH7.4) or activated (pH6.5 or pH6.0) states.
• GloSensor™ CAMP Reagent (Promega, Cat #E1291) • human GPR68 NM_001177676.2_pcDNA3.1 (+)(Genscript) • The GloSensor™-22F CAMP Reporter Vector (Promega, Cat #E2301) • DMEM (Gibco, Cat #11995065) • FBS, Qualified, New Zealand origin (Gibco, Cat #10091148) • Penicillin-Streptomycin (Gibco, Cat #15140122) • 0.25% Trypsin-EDTA (Gibco, Cat #25200056) • PBS (Gibco, Cat #10010049) • 1x HBSS (Gibco, Cat #14175079) • HEPES (Gibco, Cat #15630080) • MES (Sigma, Cat #M2933-25G) • TAPS (Sigma, Cat #T5316-25G) • NaOH (Sigma, Cat #221465) • BSA (Sigma, Cat #B2064-50G) • Opti-MEM (Gibco, Cat #31985070) • DMSO (Sigma, Cat #D5879-1L) • FuGene HD Transfection Reagent (Promega, Cat #E2311)
• 1) Detached cells with 0.25% Trypsin when the cell confluence was about 80%. • 2)Resuspended the detached cells in 3 ml fresh cell culture medium. Counted the cell number and diluted the cells to proper density. • 3) Seeded 1.5∧10∧6 cells into 6-well plate (Cat. #3516) in 2 ml per well contained the need to transfection well so that the cells were 80-85% confluent at the time of transfection. • 4) Incubated the cells at 37° C. in a CO2 incubator for 6 hours.
• 5) Gently aspirated off the DMEM medium. Then added the Opti-MEM® Medium without serum into 6-well plate. • 6) Added 2.5 μg GPR68 and 2.5 μg GloSensor-22F in 1:1 ratio and 12 μl FuGeneHD into 120 μl of Opti-MEM® Medium without serum. Mixed gently and incubated for 15 min at room temperature. • 7) After the 15-minute incubation, added 137 μl of DNA-Transfection Reagent complexes to each well containing cells and medium. Mixed gently by rocking the plate back and forth. • 8) Incubated the cells at 37° C. in a co2 incubator for 19 h until they were ready to assay for transgene expression.
Seeded 40000 cells/well, 100 μl/well in 96-well plate (Cat. #3610) with complete DMEM medium; incubated overnight.
• 1) Compounds were solubilized in 100% DMSO to a concentration of 50 mM. • 2) Prepared compound DMSO solutions in 384 LDV echo plate: top concentration was 10 mM, 3-fold, 10 dose-response, so intermediate concentrations were created by serially diluting by […] beginning from the 10000 μM. 5 μL tested intermediate compounds+10 μl DMSO solutions were transferred to 384 LDV echo plate. Centrifuged the echo plate at 1000 rpm for 30s before Echo procedure. Compounds were transferred 180 nL volume by Echo550 to a 96-assay plate (corning, Cat #3599), to make compound 10 concentration points in duplicate (the final top concentration was 10 μM, 3-fold, 10 dose-response, in duplicate). Final DMSO concentration is 0.1%. • 3) For the Low control wells and High control wells, 180 nL DMSO were transferred by ECHO. • 4) Layout of assay plate 180 nL/well of compounds in 100% DMSO 180 nL/well DMSO in Low control wells and High control wells was as shown below. Compounds were prepared into assay plate at […] in 100% DMSO, the assay volume was […], and final DMSO concentration was 0.1%.
• 1)Removed culture medium, added 100 μL/well GloSensor (50×) to cells, then incubated for 2 h at room temperature.
• 2) Pre-read Luminescence at −5 min for background after 2 h incubation.

T1 sequence (Q15743 whole entry): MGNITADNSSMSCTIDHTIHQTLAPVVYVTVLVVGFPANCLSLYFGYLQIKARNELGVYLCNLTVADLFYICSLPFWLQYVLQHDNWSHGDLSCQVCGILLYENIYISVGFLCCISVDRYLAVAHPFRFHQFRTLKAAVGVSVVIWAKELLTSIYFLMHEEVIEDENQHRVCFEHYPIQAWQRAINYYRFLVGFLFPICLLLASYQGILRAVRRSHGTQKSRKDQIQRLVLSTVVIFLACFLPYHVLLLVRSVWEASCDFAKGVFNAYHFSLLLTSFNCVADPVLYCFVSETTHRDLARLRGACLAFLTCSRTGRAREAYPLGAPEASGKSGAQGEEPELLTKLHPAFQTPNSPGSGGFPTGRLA

Row | SMILES | IC50
1 | O=C(O)c1nn(C(=O)/C=C/c2ccc3c(cnn3CC3CC3)c2)c2ccccc12 [Compound 15] | 6.68 µM
2 | O=C(/C=C/c1ccc2c(cnn2CC2CC2)c1)Nc1ccccc1-c1nnn[nH]1 [Compound 16, (E)-N-(2-(1H-tetrazol-5-yl)phenyl)-3-(1-(cyclopropylmethyl)-1H-indazol-5-yl)acrylamide] | 6.9 µM
3 | CN(C)S(=O)(=O)NC(=O)c1ccccc1NC(=O)/C=C/c1ccc2c(cnn2CC2CC2)c1 [Compound 17] | 7.02 µM
4 | NS(=O)(=O)c1ccccc1NC(=O)/C=C/c1ccc2c(cnn2CC2CC2)c1 [Compound 18, (E)-3-(1-(cyclopropylmethyl)-1H-indazol-5-yl)-N-(2-sulfamoylphenyl)acrylamide] | 7.39 µM
5 | O=C(/C=C/c1ccc2c(cnn2CC2CC2)c1)NC1C2CC3CC(C2)CC1C3 (centres unmarked) [Compound 19] | 9.7 µM
6 | O=C(/C=C/c1ccc2c(cnn2CC2CC2)c1)Nc1ncccc1F [Compound 23] | 17 µM
7 | O=C(/C=C/c1ccc2c(cnn2CC2CC2)c1)Nc1ccc(F)cn1 [Compound 25] | 14.9 µM
8 | O=C(/C=C/c1ccc2c(cnn2CC2CC2)c1)Nc1c(F)cccc1C(=O)O [Compound 36] | 11.5 µM
9 | O=C(/C=C/c1ccc2c(cnn2CC2CC2)c1)Nc1ccc(F)cc1C(=O)O [Compound 55] | 8.6 µM

Compounds with a lower IC50, results first:

Row | IC50 | SMILES
10 | 0.593 µM | O=C(/C=C/c1ccc2c(cnn2CC2CC2)c1)Nc1sccc1C(=O)O [Compound 1]
11 | 0.861 µM | O=C(/C=C/c1ccc2c(cnn2CC2CC2)c1)Nc1ccccc1F [Compound 2, (E)-3-(1-(cyclopropylmethyl)-1H-indazol-5-yl)-N-(2-fluorophenyl)acrylamide]
12 | 1.29 µM | O=C(/C=C/c1cc2cnn(CC3CC3)c2cc1F)Nc1ccccc1C(=O)O [Compound 4, (E)-2-(3-(1-(cyclopropylmethyl)-6-fluoro-1H-indazol-5-yl)acrylamido)benzoic acid]
13 | 1.41 µM | O=C(/C=C/c1ccc2c(cnn2CC2CC2)c1)Nc1ccccn1 [Compound 5, (E)-3-(1-(cyclopropylmethyl)-1H-indazol-5-yl)-N-(pyridin-2-yl)acrylamide]
14 | 1.68 µM | O=C(/C=C/c1ccc2c(cnn2CC2CC2)c1)Nc1ccccc1C(=O)O [Compound 6, (E)-2-(3-(1-(cyclopropylmethyl)-1H-indazol-5-yl)acrylamido)benzoic acid]
15 | 2.02 µM | O=C(/C=C/c1ccc2c(cnn2CC2CC2)c1)Nc1cccnc1C(=O)O [Compound 7, (E)-3-(3-(1-(cyclopropylmethyl)-1H-indazol-5-yl)acrylamido)picolinic acid]
16 | 2.08 µM | O=C(/C=C/c1ccc2c(cnn2CC2CC2)c1)Nc1ccccc1 [Compound 8, (E)-3-(1-(cyclopropylmethyl)-1H-indazol-5-yl)-N-phenylacrylamide]
17 | 3.46 µM | Cn1ncc2cc(/C=C/C(=O)Nc3ccccn3)ccc21 [Compound 9, (E)-3-(1-methyl-1H-indazol-5-yl)-N-(pyridin-2-yl)acrylamide]
18 | 3.82 µM | O=C(/C=C/c1ccc2c(cnn2CC2CC2)c1)Nc1cccc(C(=O)O)n1 [Compound 10, (E)-6-(3-(1-(cyclopropylmethyl)-1H-indazol-5-yl)acrylamido)picolinic acid]
19 | 3.83 µM | Cn1ncc2cc(/C=C/C(=O)Nc3ccccc3)ccc21 [Compound 11, (E)-3-(1-methyl-1H-indazol-5-yl)-N-phenylacrylamide]
20 | 4.49 µM | O=C(/C=C/c1ccc2c(cnn2CC2CC2)c1)Nc1ccccc1NS(=O)(=O)CC(F)(F)F [Compound 12, (E)-3-(1-(cyclopropylmethyl)-1H-indazol-5-yl)-N-(2-((2,2,2-trifluoroethyl)sulfonamido)phenyl)acrylamide]
21 | 4.81 µM | O=C(/C=C/c1ccc2c(cnn2CC2CC2)c1)Nc1ccccc1-c1noc(=O)[nH]1 [Compound 13, (E)-3-(1-(cyclopropylmethyl)-1H-indazol-5-yl)-N-(2-(5-oxo-4,5-dihydro-1,2,4-oxadiazol-3-yl)phenyl)acrylamide]
22 | 5.72 µM | O=C(/C=C/c1ccc2c(cnn2CC2CC2)c1)Nc1ccccc1-c1n[nH]c(=O)o1 [Compound 14, (E)-3-(1-(cyclopropylmethyl)-1H-indazol-5-yl)-N-(2-(5-oxo-4,5-dihydro-1,3,4-oxadiazol-2-yl)phenyl)acrylamide]
23 | 3.52 µM | O=C(/C=C/c1ccc2c(cnn2CC2CC2)c1)Nc1cc(F)ccc1C(=O)O [Compound 56]
